Source: US9550747B2, “Dapagliflozin crystalline form and preparation method thereof” (Jiangsu Hansoh Pharmaceutical Group Co., Ltd., priority 2014, dated 2017)
Where two headings read alike, the source gives them in different places. Blank lines part the entries; values can stand above or below the compound they belong to.

How the values were obtained:
[1] = 30° C.±2° C./RH 65%±5%
Procedure: (§1) The crystal resulting from Example 1 was placed under acceleration conditions for 6 months.
Conditions: 30° C.±2° C./RH 65%±5%
(§2) Package: Two layers of low density polyethylene bag for medicinal use were sealed by hot-melt respectively, and desiccant was added. The bag was sealed and packaged with a pharmaceutical composite film bag of polyester/aluminum/polyamide/cast polypropylene.

[2] = 21° C.±2° C./RH 45%±5%
Procedure: as §1
Conditions: 21° C.±2° C./RH 45%±5%
as §2

[3] = not given; remark: listed apart in the source

transformation of the crystal (XRPD) (after grinding): does not result in transformation
transformation of the crystal (XRPD) (after pressing into a tablet, FIG. 2): no transformation
SMILES: CCOc1ccc(Cc2cc([C@@H]3O[C@H](CO)[C@@H](O)[C@H](O)[C@H]3O)ccc2Cl)cc1 [crystal of the present invention, 2-chloro-5-(β-D-glucopyranosyl-1-yl)-4′-ethoxy-diphenylmethane]

HPLC Identification ([1]; 1 Month): accordance
Moisture Content (%) ([1]; 1 Month): 0.82%
Related Substances Maximum Single Impurity (%) ([1]; 1 Month): 0.03%
Related Substances Total Impurity (%) ([1]; 1 Month): 0.10%
Specific Rotation ([1]; 1 Month): +13.2°
Total Content (%) ([1]; 1 Month): 99.6%
XRPD ([1]; 1 Month): accordance
HPLC Identification ([1]; 2 Months): accordance
Moisture Content (%) ([1]; 2 Months): 0.81%
Related Substances Maximum Single Impurity (%) ([1]; 2 Months): 0.03%
Related Substances Total Impurity (%) ([1]; 2 Months): 0.11%
Specific Rotation ([1]; 2 Months): +13.0°
Total Content (%) ([1]; 2 Months): 99.7%
XRPD ([1]; 2 Months): accordance
HPLC Identification ([1]; 3 Months): accordance
Moisture Content (%) ([1]; 3 Months): 0.77%
Related Substances Maximum Single Impurity (%) ([1]; 3 Months): 0.03%
Related Substances Total Impurity (%) ([1]; 3 Months): 0.10%
Specific Rotation ([1]; 3 Months): +13.4°
Total Content (%) ([1]; 3 Months): 99.3%
XRPD ([1]; 3 Months): accordance
HPLC Identification ([1]; 6 Months): accordance
Moisture Content (%) ([1]; 6 Months): 0.81%
Related Substances Maximum Single Impurity (%) ([1]; 6 Months): 0.03%
Related Substances Total Impurity (%) ([1]; 6 Months): 0.13%
Specific Rotation ([1]; 6 Months): +13.3°
Total Content (%) ([1]; 6 Months): 99.5%
XRPD ([1]; 6 Months): accordance
quality indicators of the sample ([1]; 6 Months): did not change significantly
HPLC Identification ([1]; time 0): accordance
Moisture Content (%) ([1]; time 0): 0.76%
Related Substances Maximum Single Impurity (%) ([1]; time 0): 0.04%
Related Substances Total Impurity (%) ([1]; time 0): 0.11%
Specific Rotation ([1]; time 0): +13.3°
Total Content (%) ([1]; time 0): 99.4%
XRPD ([1]; time 0): accordance
HPLC Identification ([2]; 3 Months): accordance
Moisture Content (%) ([2]; 3 Months): 0.77%
Related Substances Maximum Single Impurity (%) ([2]; 3 Months): 0.03%
Related Substances Total Impurity (%) ([2]; 3 Months): 0.11%
Specific Rotation ([2]; 3 Months): +13.1°
Total Content (%) ([2]; 3 Months): 99.8%
XRPD ([2]; 3 Months): accordance
HPLC Identification ([2]; 6 Months): accordance
Moisture Content (%) ([2]; 6 Months): 0.80%
Related Substances Maximum Single Impurity (%) ([2]; 6 Months): 0.03%
Related Substances Total Impurity (%) ([2]; 6 Months): 0.13%
Specific Rotation ([2]; 6 Months): +12.9°
Total Content (%) ([2]; 6 Months): 99.5%
XRPD ([2]; 6 Months): accordance
quality indicators of the sample ([2]; 6 Months): did not change significantly
HPLC Identification ([2]; time 0): accordance
Moisture Content (%) ([2]; time 0): 0.76%
Related Substances Maximum Single Impurity (%) ([2]; time 0): 0.04%
Related Substances Total Impurity (%) ([2]; time 0): 0.11%
Specific Rotation ([2]; time 0): +13.3°
Total Content (%) ([2]; time 0): 99.4%
XRPD ([2]; time 0): accordance
hygroscope ([3]; High humidity test 25° C./RH 75%, day 5): 4.83%
hygroscope ([3]; High humidity test 25° C./RH 75%, day 10): 4.84%
hygroscope ([3]; High humidity test 25° C./RH 95%, day 5): 6.09%
hygroscope ([3]; High humidity test 25° C./RH 95%, day 10): 6.71%
SMILES: CCOc1ccc(Cc2cc([C@@H]3O[C@H](CO)[C@@H](O)[C@H](O)[C@H]3O)ccc2Cl)cc1 [Example 1, 2-chloro-5-(β-D-glucopyranosyl-1-yl)-4′-ethoxy-diphenylmethane]
